A word on the melting point: it is the temperature of the solid-liquid transition. The compound `CCOCc1nc2c(N)nc3ccccc3c2n1CC(C)(C)CS(N)(=O)=O` [Example 42, 3-[4-Amino-2-(ethoxymethyl)-1H-imidazo[4,5-c]quinolin-1-yl]-2,2-dimethylpropane-1-sulfonamide] gave a melting point of 229 to 231 °C.

`CN(C)S(=O)(=O)CCCn1cnc2c(N)nc3ccccc3c21` [Example 7, N,N-Dimethyl 3-(4-amino-1H-imidazo[4,5-c]quinolin-1-yl)propane-1-sulfonamide] yielded a melting point of 155 to 157 °C.

Take `CCOCc1nc2c(N)nc3c(c2n1CCCCS(=O)(=O)N(C)C)CCCC3` [Example 19, N,N-Dimethyl 4-(4-amino-2-ethoxymethyl-6,7,8,9-tetrahydro-1H-imidazo[4,5-c]quinolin-1-yl)butane-1-sulfonamide]: the melting point was in the range of 165 to 167 °C.

The compound `CCc1nc2c(N)nc3ccccc3c2n1CCCCS(=O)(=O)NCc1ccc(OC)cc1` [Example 5, N-(4-Methoxybenzyl) 4-(4-amino-2-ethyl-1H-imidazo[4,5-c]quinolin-1-yl)butane-1-sulfonamide] had a melting point of 176 to 177 °C.

`CCOCc1nc2c(N)nc3ccccc3c2n1CCCCS(N)(=O)=O` [Example 21, 4-(4-Amino-2-ethoxymethyl-1H-imidazo[4,5-c]quinolin-1-yl)butane-1-sulfonamide] showed a melting point of 155 to 158 °C.

As for `CCOCc1nc2c(N)nc3ccccc3c2n1CCCCCS(=O)(=O)NCc1ccc(OC)cc1` [Example 22, N-(4-Methoxybenzyl) 5-(4-amino-2-ethoxymethyl-1H-imidazo[4,5-c]quinolin-1-yl)pentane-1-sulfonamide], the melting point lay within 177 to 178 °C.

(Values after US8735421B2, “Imidazoquinolinyl sulfonamides” (3M Innovative Properties Company, priority 2003, dated 2014).)
